In assay [1] the target is Hydroxycarboxylic acid receptor 2 (Homo sapiens, UniProt Q8TDS4).
Assay [2] has as its target T1, Glucocorticoid receptor (Homo sapiens, UniProt P04150).
T1 sequence (P04150 whole entry): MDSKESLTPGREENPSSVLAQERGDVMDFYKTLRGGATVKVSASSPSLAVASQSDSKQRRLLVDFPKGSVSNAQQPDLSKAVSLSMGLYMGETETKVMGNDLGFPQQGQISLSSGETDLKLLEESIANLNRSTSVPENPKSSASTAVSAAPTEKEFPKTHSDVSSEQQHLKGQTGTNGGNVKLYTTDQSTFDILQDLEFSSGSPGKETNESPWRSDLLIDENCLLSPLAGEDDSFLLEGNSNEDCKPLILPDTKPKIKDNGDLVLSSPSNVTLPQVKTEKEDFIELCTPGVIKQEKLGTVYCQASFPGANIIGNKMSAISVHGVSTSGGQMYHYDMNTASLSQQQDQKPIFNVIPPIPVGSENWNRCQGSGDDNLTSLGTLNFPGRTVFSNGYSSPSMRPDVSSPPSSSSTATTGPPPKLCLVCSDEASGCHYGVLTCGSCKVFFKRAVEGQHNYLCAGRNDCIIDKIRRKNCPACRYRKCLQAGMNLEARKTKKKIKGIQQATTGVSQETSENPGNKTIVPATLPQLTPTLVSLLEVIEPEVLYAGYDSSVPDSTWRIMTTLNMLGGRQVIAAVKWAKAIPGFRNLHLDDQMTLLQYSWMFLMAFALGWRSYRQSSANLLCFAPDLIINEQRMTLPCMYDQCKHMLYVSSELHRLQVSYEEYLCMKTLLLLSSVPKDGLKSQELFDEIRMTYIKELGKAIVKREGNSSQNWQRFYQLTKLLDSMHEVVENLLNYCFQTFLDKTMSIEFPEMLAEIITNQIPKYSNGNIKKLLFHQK
The class given is functional.

For another assay, the target named is T2, Estrogen receptor (Homo sapiens, UniProt P03372).
T2 sequence (P03372 whole entry): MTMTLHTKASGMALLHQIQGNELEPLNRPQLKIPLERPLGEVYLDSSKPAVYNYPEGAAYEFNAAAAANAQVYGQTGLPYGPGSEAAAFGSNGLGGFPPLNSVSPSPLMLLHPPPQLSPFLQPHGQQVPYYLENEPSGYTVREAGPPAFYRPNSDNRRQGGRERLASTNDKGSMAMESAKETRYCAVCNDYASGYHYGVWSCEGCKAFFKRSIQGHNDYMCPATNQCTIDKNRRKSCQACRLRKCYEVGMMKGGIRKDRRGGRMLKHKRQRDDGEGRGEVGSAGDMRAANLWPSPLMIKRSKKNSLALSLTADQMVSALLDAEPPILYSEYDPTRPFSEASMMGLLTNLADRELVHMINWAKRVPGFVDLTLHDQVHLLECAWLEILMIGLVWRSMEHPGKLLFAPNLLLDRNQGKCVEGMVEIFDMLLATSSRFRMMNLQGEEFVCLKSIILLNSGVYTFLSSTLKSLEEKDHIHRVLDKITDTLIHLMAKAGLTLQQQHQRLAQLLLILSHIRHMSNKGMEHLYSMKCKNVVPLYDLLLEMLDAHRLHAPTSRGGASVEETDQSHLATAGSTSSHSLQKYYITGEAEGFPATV
The class given is functional.

The target of assay [3] is T1, Glucocorticoid receptor. Format: functional. This is another data set of the same source.
The target of assay [4] is 5-hydroxytryptamine receptor 6 (Homo sapiens, UniProt P50406).
Assay [5] concerns the target T3, Muscarinic acetylcholine receptor M5 (Homo sapiens, UniProt P08912).
T3 sequence (P08912 whole entry): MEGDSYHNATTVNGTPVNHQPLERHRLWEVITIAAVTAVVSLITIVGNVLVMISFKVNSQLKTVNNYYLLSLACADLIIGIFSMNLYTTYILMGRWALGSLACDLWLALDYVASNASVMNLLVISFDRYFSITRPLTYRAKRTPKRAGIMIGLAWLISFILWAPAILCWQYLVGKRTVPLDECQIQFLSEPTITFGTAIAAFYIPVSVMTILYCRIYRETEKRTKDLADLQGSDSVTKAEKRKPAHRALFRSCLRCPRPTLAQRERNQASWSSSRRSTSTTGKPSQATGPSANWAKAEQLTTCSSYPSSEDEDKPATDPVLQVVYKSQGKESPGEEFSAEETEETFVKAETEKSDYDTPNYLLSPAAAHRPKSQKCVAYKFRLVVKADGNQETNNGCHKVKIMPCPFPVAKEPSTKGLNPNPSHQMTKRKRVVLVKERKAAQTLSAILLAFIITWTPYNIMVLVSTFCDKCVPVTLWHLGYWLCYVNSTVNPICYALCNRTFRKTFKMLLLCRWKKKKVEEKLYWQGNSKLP

Assay [6] concerns the target T4, Muscarinic acetylcholine receptor M4 (Homo sapiens, UniProt P08173).
T4 sequence (P08173 whole entry): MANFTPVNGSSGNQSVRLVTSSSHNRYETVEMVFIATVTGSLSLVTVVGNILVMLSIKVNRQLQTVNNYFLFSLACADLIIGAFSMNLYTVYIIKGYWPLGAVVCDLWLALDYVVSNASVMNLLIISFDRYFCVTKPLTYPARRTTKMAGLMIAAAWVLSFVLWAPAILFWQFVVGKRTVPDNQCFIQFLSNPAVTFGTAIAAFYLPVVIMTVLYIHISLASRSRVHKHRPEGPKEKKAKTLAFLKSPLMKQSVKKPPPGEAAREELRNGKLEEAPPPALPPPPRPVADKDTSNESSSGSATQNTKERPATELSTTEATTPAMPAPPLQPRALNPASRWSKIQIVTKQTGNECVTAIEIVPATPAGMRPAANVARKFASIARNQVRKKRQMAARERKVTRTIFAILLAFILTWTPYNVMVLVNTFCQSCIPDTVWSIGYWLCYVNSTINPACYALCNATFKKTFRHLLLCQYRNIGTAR

The next assay has as its target D(1B) dopamine receptor (Homo sapiens, UniProt P21918).
In assay [7] the target is Gamma-aminobutyric acid type B receptor subunit 1 (Homo sapiens, UniProt Q9UBS5).
The target in assay [8] is 5-hydroxytryptamine receptor 5A (Homo sapiens, UniProt P47898).
In assay [9] the target is 5-hydroxytryptamine receptor 7 (Homo sapiens, UniProt P34969).
The target in assay [10] is Rod cGMP-specific 3',5'-cyclic phosphodiesterase subunit alpha (Homo sapiens, UniProt P16499). Format: functional.
The target of assay [11] is Beta-1 adrenergic receptor (Homo sapiens, UniProt P08588). Format: functional, cell-based.

AC50 data for 17 compounds are collected here from ChEMBL document CHEMBL5291721, “A preclinical secondary pharmacology resource illuminates target-adverse drug reaction associations of marketed drugs” (Nat Commun, 2023).

A word on the AC50: it is the concentration at which the activity in the assay is half-maximal. High values mean weaker potency, low ones greater potency.

Structures are written as SMILES.
Note: assay procedure not described here.

Chain of 5-hydroxytryptamine receptor 5A (P47898 whole entry): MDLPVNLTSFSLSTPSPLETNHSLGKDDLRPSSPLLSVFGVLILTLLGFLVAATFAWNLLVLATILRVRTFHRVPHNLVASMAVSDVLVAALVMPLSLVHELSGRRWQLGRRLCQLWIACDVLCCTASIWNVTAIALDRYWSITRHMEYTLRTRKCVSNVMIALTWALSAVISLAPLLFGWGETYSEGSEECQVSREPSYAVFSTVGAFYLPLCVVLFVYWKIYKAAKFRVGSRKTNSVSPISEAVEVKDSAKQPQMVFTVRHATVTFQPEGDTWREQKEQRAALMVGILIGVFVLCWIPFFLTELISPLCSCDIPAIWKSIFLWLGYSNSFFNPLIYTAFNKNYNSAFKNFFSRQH
Chain of Hydroxycarboxylic acid receptor 2 (Q8TDS4 whole entry): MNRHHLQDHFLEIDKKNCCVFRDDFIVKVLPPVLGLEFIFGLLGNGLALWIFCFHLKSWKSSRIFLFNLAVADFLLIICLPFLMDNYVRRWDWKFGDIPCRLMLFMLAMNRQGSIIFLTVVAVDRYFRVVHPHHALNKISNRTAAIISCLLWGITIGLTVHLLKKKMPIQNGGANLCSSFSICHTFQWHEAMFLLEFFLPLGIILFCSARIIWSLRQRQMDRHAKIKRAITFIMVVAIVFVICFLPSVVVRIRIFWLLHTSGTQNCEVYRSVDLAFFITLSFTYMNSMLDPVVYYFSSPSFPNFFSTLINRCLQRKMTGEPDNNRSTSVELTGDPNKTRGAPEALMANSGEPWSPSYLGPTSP
Chain of Rod cGMP-specific 3',5'-cyclic phosphodiesterase subunit alpha (P16499 whole entry): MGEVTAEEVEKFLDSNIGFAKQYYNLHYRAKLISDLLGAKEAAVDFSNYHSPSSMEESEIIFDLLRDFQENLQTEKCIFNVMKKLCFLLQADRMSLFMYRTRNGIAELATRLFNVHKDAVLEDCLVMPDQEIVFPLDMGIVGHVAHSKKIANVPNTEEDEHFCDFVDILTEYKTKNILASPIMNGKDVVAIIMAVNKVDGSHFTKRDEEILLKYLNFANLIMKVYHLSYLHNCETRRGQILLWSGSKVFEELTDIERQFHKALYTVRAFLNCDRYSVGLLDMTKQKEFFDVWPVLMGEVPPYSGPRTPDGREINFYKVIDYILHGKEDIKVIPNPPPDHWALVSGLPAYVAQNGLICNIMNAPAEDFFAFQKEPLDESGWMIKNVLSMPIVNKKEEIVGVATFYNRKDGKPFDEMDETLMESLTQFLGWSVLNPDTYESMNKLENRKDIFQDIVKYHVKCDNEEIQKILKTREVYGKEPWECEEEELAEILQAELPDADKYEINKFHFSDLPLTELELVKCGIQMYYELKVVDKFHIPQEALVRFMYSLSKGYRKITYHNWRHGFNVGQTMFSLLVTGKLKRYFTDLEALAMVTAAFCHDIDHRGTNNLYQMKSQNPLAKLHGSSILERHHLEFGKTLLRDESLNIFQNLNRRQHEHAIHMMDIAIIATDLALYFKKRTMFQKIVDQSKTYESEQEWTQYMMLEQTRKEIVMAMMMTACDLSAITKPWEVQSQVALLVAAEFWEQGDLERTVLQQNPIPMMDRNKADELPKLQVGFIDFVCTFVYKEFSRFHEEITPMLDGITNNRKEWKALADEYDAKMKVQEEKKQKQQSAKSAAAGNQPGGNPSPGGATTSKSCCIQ
Chain of Gamma-aminobutyric acid type B receptor subunit 1 (Q9UBS5 whole entry): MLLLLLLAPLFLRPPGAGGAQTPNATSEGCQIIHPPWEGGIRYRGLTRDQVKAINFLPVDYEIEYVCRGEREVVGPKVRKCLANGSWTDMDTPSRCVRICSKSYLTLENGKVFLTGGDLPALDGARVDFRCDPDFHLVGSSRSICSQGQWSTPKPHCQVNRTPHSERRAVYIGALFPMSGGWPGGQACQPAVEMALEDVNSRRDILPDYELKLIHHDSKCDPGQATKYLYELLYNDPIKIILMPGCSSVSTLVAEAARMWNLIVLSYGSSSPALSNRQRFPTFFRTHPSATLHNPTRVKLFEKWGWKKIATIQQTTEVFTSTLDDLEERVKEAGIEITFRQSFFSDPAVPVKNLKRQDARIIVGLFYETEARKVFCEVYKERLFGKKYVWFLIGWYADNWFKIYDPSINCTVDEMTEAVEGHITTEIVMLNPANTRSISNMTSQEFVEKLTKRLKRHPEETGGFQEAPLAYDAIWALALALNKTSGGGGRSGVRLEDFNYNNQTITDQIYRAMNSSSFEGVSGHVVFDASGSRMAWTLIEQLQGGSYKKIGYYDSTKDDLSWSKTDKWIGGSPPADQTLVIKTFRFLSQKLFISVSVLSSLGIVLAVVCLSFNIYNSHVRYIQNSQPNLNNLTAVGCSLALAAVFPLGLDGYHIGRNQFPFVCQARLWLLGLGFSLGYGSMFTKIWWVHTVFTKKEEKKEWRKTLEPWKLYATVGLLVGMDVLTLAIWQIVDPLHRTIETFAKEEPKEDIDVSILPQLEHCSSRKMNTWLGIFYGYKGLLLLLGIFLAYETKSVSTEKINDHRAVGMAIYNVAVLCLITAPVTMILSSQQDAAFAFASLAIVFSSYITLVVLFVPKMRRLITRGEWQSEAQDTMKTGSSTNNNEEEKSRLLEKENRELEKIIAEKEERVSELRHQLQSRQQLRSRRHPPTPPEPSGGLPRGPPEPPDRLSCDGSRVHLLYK
Chain of D(1B) dopamine receptor (P21918 whole entry): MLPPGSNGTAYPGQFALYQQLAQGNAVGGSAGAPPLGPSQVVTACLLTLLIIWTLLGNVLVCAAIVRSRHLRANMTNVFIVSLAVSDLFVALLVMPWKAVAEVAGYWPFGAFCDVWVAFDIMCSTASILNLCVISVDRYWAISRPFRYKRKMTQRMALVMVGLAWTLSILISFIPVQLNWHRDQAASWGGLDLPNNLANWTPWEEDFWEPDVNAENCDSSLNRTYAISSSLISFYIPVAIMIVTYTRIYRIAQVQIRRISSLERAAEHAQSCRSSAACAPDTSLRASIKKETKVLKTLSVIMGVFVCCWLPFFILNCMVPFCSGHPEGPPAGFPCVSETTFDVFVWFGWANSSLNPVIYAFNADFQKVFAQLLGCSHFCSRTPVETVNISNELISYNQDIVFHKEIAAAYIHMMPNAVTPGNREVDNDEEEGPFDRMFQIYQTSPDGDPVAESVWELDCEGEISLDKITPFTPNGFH
Chain of 5-hydroxytryptamine receptor 6 (P50406 whole entry): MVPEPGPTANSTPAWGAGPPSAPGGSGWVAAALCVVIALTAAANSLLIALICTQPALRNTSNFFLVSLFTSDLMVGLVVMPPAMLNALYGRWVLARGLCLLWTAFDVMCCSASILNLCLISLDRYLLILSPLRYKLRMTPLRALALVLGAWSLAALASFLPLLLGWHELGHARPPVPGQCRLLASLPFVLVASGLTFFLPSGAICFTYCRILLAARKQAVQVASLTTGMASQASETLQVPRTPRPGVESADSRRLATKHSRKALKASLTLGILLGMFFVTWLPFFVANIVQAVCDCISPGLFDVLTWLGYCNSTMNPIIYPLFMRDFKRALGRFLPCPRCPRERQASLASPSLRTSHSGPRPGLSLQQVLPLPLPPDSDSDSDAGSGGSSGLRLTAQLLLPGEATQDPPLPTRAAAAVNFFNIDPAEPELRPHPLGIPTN
Chain of Beta-1 adrenergic receptor (P08588 whole entry): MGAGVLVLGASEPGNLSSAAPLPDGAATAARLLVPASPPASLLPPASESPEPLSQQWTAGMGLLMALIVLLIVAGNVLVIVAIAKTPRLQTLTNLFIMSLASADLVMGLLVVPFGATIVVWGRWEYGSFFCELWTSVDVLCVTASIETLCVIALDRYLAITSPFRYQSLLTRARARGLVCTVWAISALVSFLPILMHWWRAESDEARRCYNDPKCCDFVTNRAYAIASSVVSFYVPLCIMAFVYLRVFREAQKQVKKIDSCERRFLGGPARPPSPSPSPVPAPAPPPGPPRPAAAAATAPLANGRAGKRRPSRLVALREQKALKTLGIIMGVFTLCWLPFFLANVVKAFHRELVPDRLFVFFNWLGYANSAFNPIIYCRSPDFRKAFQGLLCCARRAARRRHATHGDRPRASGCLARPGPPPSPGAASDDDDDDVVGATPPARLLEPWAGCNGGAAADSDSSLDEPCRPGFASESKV
Chain of 5-hydroxytryptamine receptor 7 (P34969 whole entry): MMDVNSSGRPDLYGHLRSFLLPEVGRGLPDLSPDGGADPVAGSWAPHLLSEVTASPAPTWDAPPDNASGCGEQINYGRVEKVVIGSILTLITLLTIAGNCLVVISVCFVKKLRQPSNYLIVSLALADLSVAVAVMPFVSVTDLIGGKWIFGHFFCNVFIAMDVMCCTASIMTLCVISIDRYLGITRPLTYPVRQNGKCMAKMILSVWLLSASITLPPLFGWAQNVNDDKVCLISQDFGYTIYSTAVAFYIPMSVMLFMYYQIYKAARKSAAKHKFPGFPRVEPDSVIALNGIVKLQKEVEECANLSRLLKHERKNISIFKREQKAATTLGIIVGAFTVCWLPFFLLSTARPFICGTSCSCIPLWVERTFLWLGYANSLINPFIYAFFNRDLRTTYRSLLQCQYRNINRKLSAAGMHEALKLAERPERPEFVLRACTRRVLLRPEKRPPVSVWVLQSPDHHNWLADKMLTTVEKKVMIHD

`O=C(O[C@H]1C[N+]2(CCCOc3ccccc3)CCC1CC2)C(O)(c1cccs1)c1cccs1` [ACLIDINIUM BROMIDE]: in assay [1], the AC50 is greater than 10 µM.
Turning to `Cc1nnc2n1-c1ccc(Cl)cc1C(c1ccccc1)=NC2` [ALPRAZOLAM], the AC50 in assay [1] is greater than 10 µM.
For the compound `COc1ccc(-n2nc(C(N)=O)c3c2C(=O)N(c2ccc(N4CCCCC4=O)cc2)CC3)cc1` [APIXABAN], the AC50 on Glucocorticoid receptor [2], at Estrogen receptor and on Glucocorticoid receptor [3] was greater than 30 µM each time.
As to `CC(NC(C)(C)C)C(=O)c1cccc(Cl)c1` (stereo not given) [BUPROPION], the AC50 (in assay [4]; in assay [5]; in assay [6]; at D(1B) dopamine receptor; in [7]; in [8]) was greater than 10 µM throughout. The AC50 in assay [9] is greater than 10 µM.
For `O=C1CN=C(c2ccccc2Cl)c2cc([N+](=O)[O-])ccc2N1` [CLONAZEPAM], the AC50 in [1] is greater than 10 µM.
For the compound `CCCCCCOC(=O)NC(=N)c1ccc(NCc2nc3cc(C(=O)N(CCC(=O)OCC)c4ccccn4)ccc3n2C)cc1` [DABIGATRAN ETEXILATE], the AC50 at Glucocorticoid receptor [2], on Estrogen receptor and at Glucocorticoid receptor [3] was greater than 30 µM in each case.
Take `Cc1ccc(-c2ncc(Cl)cc2-c2ccc(S(C)(=O)=O)cc2)cn1` [ETORICOXIB]: the AC50 (in assay [4]; in [5]; in assay [6]; on D(1B) dopamine receptor; in assay [10]; in assay [7]) was greater than 10 µM in each case. The AC50 in assay [8] and in [9] was greater than 10 µM throughout.
For the compound `CC(=O)OCC(=O)[C@@]1(O)CC[C@H]2[C@@H]3CCC4=CC(=O)CC[C@]4(C)[C@@]3(F)[C@@H](O)C[C@@]21C` [FLUDROCORTISONE ACETATE], the AC50 in [11] was greater than 30 µM.
Still for that read-out and setting: then `Cc1ccc(S(=O)(=O)NC(=O)N[C@H]2[C@H]3CC[C@@](C)([C@H]2O)C3(C)C)cc1` [GLIBORNURIDE], with greater than 30 µM.
In the case of `CN1C2CCCC1CC(NC(=O)c1nn(C)c3ccccc13)C2` (stereo not given) [GRANISETRON], the concentration at half-maximal activity (AC50) (in [4]; in assay [5]; in assay [6]; at D(1B) dopamine receptor; in assay [10]; in [8]) was greater than 10 µM in each case. For the same compound, in [9], the half-maximal activity concentration (AC50) was greater than 10 µM.
Compound `COc1ccc2c3c1O[C@H]1C(=O)CC[C@H]4[C@@H](C2)N(C)CC[C@]314` [HYDROCODONE] showed an AC50 in [1] greater than 10 µM.
`CC(=O)N1CCN(c2ccc(OCC3COC(Cn4ccnc4)(c4ccc(Cl)cc4Cl)O3)cc2)CC1` (stereo not given) [KETOCONAZOLE] yielded an AC50 on Glucocorticoid receptor [2] greater than 30 µM.
The compound `CCN(CC)CC(=O)Nc1c(C)cccc1C` [LIDOCAINE] had an AC50 in assay [10] greater than 10 µM.
For `COc1nc(C)nc(Cl)c1N=C1NCCN1` [MOXONIDINE], in assay [11], the AC50 was greater than 30 µM.
In the case of `COC(=O)c1ccc2c(c1)NC(=O)/C2=C(\Nc1ccc(N(C)C(=O)CN2CCN(C)CC2)cc1)c1ccccc1` [NINTEDANIB], at Estrogen receptor, the AC50 was greater than 30 µM.
Consider `CN1CCCN=C1/C=C/c1cccc(O)c1` [OXANTEL], for which, in assay [11], the AC50 is greater than 30 µM.
As to `CC(C)(N)Cc1ccccc1` [PHENTERMINE], in assay [7], the AC50 was greater than 10 µM.
